Holding throughout (assay): NCI tumour cell line growth inhibition, 48 h
The subject of assay [1] is SNB-78.
Assay [2] deals with K562.
Assay [3] concerns DLD-1.
In assay [4] the test system is SR.
The subject of assay [5] is DMS-114.
Assay [6] concerns HCT-116.
The test system of assay [7] is RPMI-8226.
In assay [8] the test system is SF-539.
The subject of assay [9] is M19-MEL.
The test system of assay [10] is CAKI-1.
Assay [11] concerns A549.
Assay [12] has as its system HL-60.
In assay [13] the test system is OVCAR-4.
Assay [14] deals with M14.
Assay [15] relates to NCI-H226.
The subject of assay [16] is TK-10.
Assay [17] deals with MCF7.
For assay [18], the system named is NCI/ADR-RES.

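48-hour exposure; five concentrations; linearly interpolated endpoints. GI50 is the concentration that inhibits growth by half.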 The source made the active and inactive calls. Rule as the data show it: active = GI50 up to about 1.1 µM and inactive = higher.

Consider `CCOC(=O)NC(=O)c1cn(CCNCCO)c(=O)[nH]c1=O`, for which the GI50 in assay [1], in [2], in assay [3], in assay [4], in assay [5] and in assay [6] was > 100 µM (inactive) each time. Further, the GI50 in [7], in [8], in [9], in assay [10], in assay [11] and in [12] was > 100 µM (inactive) each time. Moreover, the GI50 in assay [13], in [14] and in [15] was > 100 µM (inactive) throughout.
With `NC(S)=Nc1cc(Cl)ccc1Cl`, the GI50 in assay [1], in assay [2], in assay [16], in assay [3], in assay [4] and in assay [5] was > 100 µM (inactive) in each case. In addition, the GI50 in [6], in [7], in [8], in assay [9], in assay [10] and in assay [11] was > 100 µM (inactive) in each case. Also, the GI50 in assay [12], in assay [13], in [14] and in assay [15] was > 100 µM (inactive) each time.
Turning to `O=[N+]([O-])c1cc2ncc(-c3ccccc3)c(O)c2cc1/C(Cl)=C/c1ccccc1`, the GI50 was 8.73 µM (inactive) in assay [1]; 5.86 µM (inactive) in [2]; 5.02 µM (inactive) in [17]; 4.93 µM (inactive) in [18]; 3.83 µM (inactive) in assay [3]; 4.88 µM (inactive) in assay [5]. The GI50 in assay [6] is 6.89 µM (inactive); in assay [7], 2.39 µM (inactive); in assay [8], 11.6 µM (inactive); in assay [9], 11.6 µM (inactive); in assay [10] it was 19.1 µM (inactive); in assay [11], 10.1 µM (inactive). Further, the results for the GI50 in assay [12], in assay [13] and in assay [15] were 5.25 µM (inactive), 3.2 µM (inactive) and 13 µM (inactive), respectively.
Regarding `CC(=O)/C=C/c1c[nH]c(=O)[nH]c1=O`, the GI50 in assay [1] is 159 µM (inactive); in [2], 229 µM (inactive); in [17], 157 µM (inactive); in assay [18] it was 151 µM (inactive); in assay [3], 179 µM (inactive); in assay [5], 242 µM (inactive). The GI50 in assay [6] is 128 µM (inactive); in assay [7], 129 µM (inactive); in [8], 214 µM (inactive); in assay [9], 390 µM (inactive); in [10], 74.3 µM (inactive); in assay [11], 305 µM (inactive). For the same molecule, the GI50 was 97.9 µM (inactive) in assay [12], 508 µM (inactive) in [13] and 204 µM (inactive) in assay [15].
With `CC(C)(C)[Si](OC1CC(n2cnc3c(N)ncnc32)OC1CO)(c1ccccc1)c1ccccc1` (stereo not given), the GI50 in assay [1] is > 100 µM (inactive); in [2], 17.1 µM (inactive); in assay [16] it was 24.2 µM (inactive); in [3], 15.5 µM (inactive); in [4], 14.5 µM (inactive); in assay [5], 23.7 µM (inactive). For the same molecule, the GI50 was 17.2 µM (inactive) in assay [6]; 14.1 µM (inactive) in assay [7]; 20.2 µM (inactive) in assay [8]; 19.7 µM (inactive) in assay [9]; 15.2 µM (inactive) in assay [11]; 41.4 µM (inactive) in [12]. In addition, the GI50 was 15 µM (inactive) in assay [13], 34.6 µM (inactive) in assay [14] and 12.4 µM (inactive) in assay [15].
As for `NC(=O)NN=C(CS)CS`, the GI50 in assay [1] was 41 µM (inactive); in [2], 51.1 µM (inactive); in [17], 24 µM (inactive); in assay [18], 25.6 µM (inactive); in assay [3], 34 µM (inactive); in [5] it was 30.5 µM (inactive). Moreover, the GI50 in assay [6] is 38.5 µM (inactive); in [7] it was 46.1 µM (inactive); in assay [8] it was 21.8 µM (inactive); in assay [9], 17.5 µM (inactive); in assay [10], 23.6 µM (inactive); in [11] it was 22 µM (inactive). Further, the GI50 in assay [12] was 0.41 µM (active); in assay [13], 25.4 µM (inactive).
As to `O=C(NCCCCCCNC(=O)n1cc(F)c(=O)[nH]c1=O)NCCCOCCOCCCNC(=O)C(O)C(O)C(O)C(O)CO` (stereo not given), the GI50 in assay [1] was > 2.5 µM (inactive); in assay [2] it was > 2.5 µM (inactive); in assay [17], > 2.27 µM (inactive); in [18] it was > 2.5 µM (inactive); in assay [3] it was 2.44 µM (inactive); in assay [5], > 2.5 µM (inactive). Further, the GI50 was > 2.05 µM (inactive) in [6]; > 2.5 µM (inactive) in [7]; > 1.84 µM (inactive) in [8]; > 2.5 µM (inactive) in assay [9]; > 2.05 µM (inactive) in [11]; > 2.29 µM (inactive) in assay [12]. Moreover, the GI50 in [13] and in [15] was > 2.5 µM (inactive) throughout.
`CCOC(=O)[C@H]1Nc2c(cccc2[N+](=O)[O-])[C@H]2OCC[C@@H]12`: the GI50 in assay [1], in assay [2], in [16], in assay [3], in assay [4] and in assay [5] was > 100 µM (inactive) each time. Also, the GI50 in [6], in assay [7], in [8], in assay [9], in assay [10] and in assay [11] was > 100 µM (inactive) in each case. The GI50 in [13], in [14] and in assay [15] was > 100 µM (inactive) in each case.
Turning to `Cn1c(=O)[nH]c2c(c1=O)C(=O)CN2`, the GI50 in assay [1], in assay [2], in assay [16], in assay [3], in assay [4] and in assay [5] was > 100 µM (inactive) in each case. Moreover, the GI50 in [6], in assay [7], in assay [8], in [9], in assay [10] and in assay [11] was > 100 µM (inactive) throughout. Also, the GI50 in assay [12] was > 100 µM (inactive); in [13], > 100 µM (inactive); in assay [14] it was > 100 µM (inactive); in [15], 36.2 µM (inactive).
Regarding `CC(=O)NC(Cc1ccsc1)C(=O)O` (stereo not given), the GI50 in assay [1], in assay [2], in assay [17], in [18], in [3] and in [5] was > 100 µM (inactive) in each case. Besides, the GI50 in assay [6], in assay [7], in assay [8], in [9], in assay [10] and in [11] was > 100 µM (inactive) throughout. The GI50 in [12], in assay [13] and in assay [15] was > 100 µM (inactive) throughout.
